Experimental data taken from US7807673B2, “2-pyrimidinyl pyrazolopyridine ErbB kinase inhibitors” (GlaxoSmithKline LLC, priority 2005, dated 2010).

Key:
Colo205 tumor cell lines = test: Methylene blue growth inhibition assay (cellular Method A); assay type: cell-based; conditions: Homo sapiens, COLO 205, 72 h, Table 3, Method A methylene blue, 3 days
Method: (§1) Human breast (BT474) and head and neck (HN5) were cultured in low glucose DMEM (Life Technologies 12320-032) containing 10% fetal bovine serum (FBS). Human colon tumor cells (Colo205) were cultured in DMEM (Invitrogen, 10564) containing 10% FBS. The SV40 transformed human mammary epithelial cell line to HB4a was transfected with either human H-ras cDNA (HB4a r4.2) or the human c-ErbB2 cDNA (HB4a c5.2). The HB4a clones were cultured in RPMI containing 10% FBS, insulin ([…]), hydrocortisone ([…]), supplemented with the selection agent hygromycin B ([…]). All lines were grown in a humidified incubator at 37° C. in 95% air, 5% CO2. Cells were harvested using trypsin/EDTA, counted using a haemocytometer, and plated in 100 microliters of the appropriate media, at the following densities, in a 96-well tissue culture plate (Falcon 3075): BT474 10,000 cells/well, HN5 3,000 cells/well. The next day, compounds were diluted in DMEM containing […] gentamicin, at twice the final required concentration, from 10 mM stock solutions in DMSO. 100 microliters/well of these dilutions were added to the 100 microliters of media currently on the cell plates. Medium containing 0.6% DMSO was added to control wells. Compounds diluted in DMEM were added to all cell lines. The final concentration of DMSO in all wells was 0.3%. Cells were returned to the incubator (37° C., […]) for 3 days. Medium was then removed by aspiration. Cell biomass was estimated by staining cells with 90 microliters per well methylene blue (Sigma M9140, 0.5% in 1:1 ethanol:water), and incubation at rt for at least 30 minutes. Stain was removed, and the plates rinsed by immersion in deionized water and air-dried. To release stain from the cells 100 microliters of solubilization solution was added (1% N-lauroyl sarcosine, Sodium salt, Sigma L5125, in PBS), and plates were shaken gently for about 30 minutes. Optical density at 620 nm was measured on a microplate reader. Percent inhibition of cell growth was calculated relative to vehicle treated control wells. Concentration of compound that inhibits 50% of control cell growth (IC50) was interpolated using nonlinear regression (Levenberg-Marquardt) and the equation, y=Vmax*(1−(x/(K+x)))+Y2, where “K” was equal to the IC50. Method B: Celltiter Glo® Growth Inhibition Assays

[1] = system: BT474 and HN5 tumor cell lines; test: as above; assay type: cell-based; conditions: Homo sapiens, BT-474 and HN5, 72 h; Table 2, Method A methylene blue, 3 days; class over BT474 and HN5;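 also: class counts the more potent of the two cell lines (BT474 or HN5)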
Method: as §1

ErbB2 or EGFR = molecular target: T1, ErbB2 or EGFR; test: ErbB enzyme substrate phosphorylation assay (HTRF), Method A; assay type: biochemical; conditions: Table 1, enzyme Method A: substrate mix added first, reaction started with enzyme mix; class over ErbB2 or EGFR
T1 construct: enzymes purified from a baculovirus expression system
Method: Compounds of the present invention were tested for EGFR, ErbB-2, and ErbB-4 protein tyrosine kinase inhibitory activity in substrate phosphorylation assays using enzymes purified from a baculovirus expression system. Reagent production was conducted essentially as described in Brignola, P. S., et al, (2002) J. Biol. Chem. 277(2): 1576-1585.
The method measures the ability of the isolated enzyme to catalyse the transfer of the gamma-phosphate from ATP onto the tyrosine residue of a biotinylated synthetic peptide referenced “Peptide C” in Brignola, P. S., et al, (2002) J. Biol. Chem. 277(2):1576-1585. The extent of tyrosine phosphorylation was measured using an anti-phosphotyrosine antibody, and quantified by homogenous time-resolved fluorescence (HTRF).
Reactions were performed in black 384-well polystyrene flat-bottom plates in a final volume of 20 μl. Assays were performed by adding 10 μl of each of the following solutions, substrate Mix and enzyme mix: The Substrate mix contained 100 mM 3-[N-morpholino]propanesulfonic acid (MOPS) (pH 7.5), 2 mM MnCl2, 20 μM ATP, 0.01% Tween-20, 0.1 mg/mL (BSA), 0.8 uM peptide substrate, and 1 mM dithiothreitol. The enzyme mix contained 100 mM MOPS (pH7.5); 0.01% Tween-20; 0.1 mg/mL BSA, and either 0.8 nM EGFR, 10 nM ErbB2, or 1 nM ErbB4
During the course of these studies, two separate methods have been used to measure the potency of compounds. In Method A, the substrate mix was added to the compound plates first, then the reaction was started by adding the enzyme mix. In Method B, the enzyme mix was added to the compound plates and the plates were incubated at 20° C. for 1 hour. The reactions were then started by adding the substrate mix.
After initiating the reaction with either method describe above, the reactions were allowed to proceed for 90 minutes at 20° C. The reactions were then terminated by the addition of 20 μl 100 mM EDTA to each well. 40 μl/well of HTRF detection mix were added to the assay plates. The final concentrations of the detection reagents were: 100 mM HEPES (pH7.5), 0.1 mg/mL BSA, 15 nM streptavidin-labeled allophycocyanin (PerkinElmer), and 1 nM europium-labeled anti-phosphotyrosine antibody (PerkinElmer). Assay plates were left unsealed and were counted in a Wallac Multilabel Counter 1420 (PerkinElmer). […]
The data for dose responses were plotted as % Inhibition calculated with the data reduction formula 100*(1−(U1−C2)/(C1−C2)) versus concentration of compound where U is the unknown value, C1 is the average control value obtained for 4.76% DMSO, and C2 is the average control value obtained for 0.035 M EDTA. […] The results for each compound were recorded as pIC50s, calculated as follows: pIC50=−Log 10(K)

SMILES | IC50 (Colo205 tumor cell lines) [nM] | IC50 [1] [nM] | Activity (Method) (ErbB2 or EGFR)
O=C(Cc1ccccc1)Nc1cccc(-c2nn3ccccc3c2-c2ccnc(Nc3ccccc3)n2)c1 [Example 3, 2-Phenyl-N-(3-{3-[2-(phenylamino)-4-pyrimidinyl]pyrazolo[1,5-a]pyridin-2-yl}phenyl)acetamide] | > 1000 | > 1000 | ++ (A) (at least one pIC50 measurement greater than 6 against either ErbB2 or EGFR but no measurement greater than pIC50 of 7)
O=C(Cc1cccs1)Nc1cccc(-c2nn3ccccc3c2-c2ccnc(Nc3ccccc3)n2)c1 [Example 4, N-(3-{3-[2-(Phenylamino)-4-pyrimidinyl]pyrazolo[1,5-a]pyridin-2-yl}phenyl)-2-(2-thienyl)acetamide] |  |  | ++ (A) (at least one pIC50 measurement greater than 6 against either ErbB2 or EGFR but no measurement greater than pIC50 of 7)
O=C(Cc1cccc(Cl)c1)Nc1cccc(-c2nn3ccccc3c2-c2ccnc(Nc3ccccc3)n2)c1 [Example 5, 2-(3-Chlorophenyl)-N-(3-{3-[2-(phenylamino)-4-pyrimidinyl]pyrazolo-[1,5-a]pyridin-2-yl}phenyl)acetamide] |  |  | + (A) (no pIC50 measurement greater than 6 against either ErbB2 or EGFR)
O=C(Cc1cc(F)ccc1F)Nc1cccc(-c2nn3ccccc3c2-c2ccnc(Nc3ccccc3)n2)c1 [Example 6, 2-(2,5-Difluorophenyl)-N-(3-{3-[2-(phenylamino)-4-pyrimidinyl]pyrazolo[1,5-a]pyridin-2-yl}phenyl)acetamide] |  |  | ++ (A) (at least one pIC50 measurement greater than 6 against either ErbB2 or EGFR but no measurement greater than pIC50 of 7)
